This is an account of results in article PMC12715762, “Discovery of VU6052254: A Novel, Potent M1 Positive Allosteric Modulator” (ACS Chemical Neuroscience, 2025).

The target in one data set is T1, mM1 (Mus musculus, UniProt P12657).
T1 construct: expressed in transfected cells
T1 sequence (P12657 1-460): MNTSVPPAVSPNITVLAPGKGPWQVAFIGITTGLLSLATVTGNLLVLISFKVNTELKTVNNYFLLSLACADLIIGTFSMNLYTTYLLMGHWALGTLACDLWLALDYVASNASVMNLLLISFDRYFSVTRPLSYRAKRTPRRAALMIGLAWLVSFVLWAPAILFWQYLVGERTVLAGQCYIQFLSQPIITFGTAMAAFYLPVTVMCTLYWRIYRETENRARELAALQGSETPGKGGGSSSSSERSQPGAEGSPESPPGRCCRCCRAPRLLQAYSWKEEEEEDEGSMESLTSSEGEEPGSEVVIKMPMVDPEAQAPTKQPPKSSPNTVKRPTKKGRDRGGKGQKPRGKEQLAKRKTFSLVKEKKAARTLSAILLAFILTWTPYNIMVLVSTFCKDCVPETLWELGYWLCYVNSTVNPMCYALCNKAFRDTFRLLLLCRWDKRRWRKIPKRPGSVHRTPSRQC
Put plainly: M1 PAM calcium mobilization assay (mouse). The data set is classed as cell-based. The note with it: mouse M1, n = 1. For orientation: Calcium flux is commonly read through the fluorescence of an indicator in the cells.

The nature of data set [1]: predicted hepatic clearance (cyno). To be noted: cyno (c). Type of data set: in vitro ADME. As to the method: (§1) After a 5 min preincubation, the reaction was initiated by the addition of NADPH (1 mM). At selected time intervals (0, 3, 7, 15, 25, and 45 min), aliquots were taken and subsequently placed into a 96-well plate containing cold acetonitrile with internal standard (50 ng/mL carbamazepine). Plates were then centrifuged at 3000 rcf (4 °C) for 10 min, and the supernatant was transferred to a separate 96-well plate and diluted 1:1 with water for LC/MS/MS analysis. The in vitro half-life ( 1/2, min, Eq. 1), intrinsic clearance (CLint, mL/min/kg, Eq. 2), and subsequent predicted hepatic clearance (CLhep, mL/min/kg, Eq. 3) was determined employing the […]
(§2) where k represents the slope from linear regression analysis of the natural log percent remaining of a test compound as a function of incubation time […]
(§3) (2) CLint = in vitroT x mg microsomes x gram liver x kg body wt ascale-up factors: of 20 (human) or 45 (rat) […]
(§4) where Qh (hepatic blood flow, mL/min/kg) is 21 (human) or 70 (rat).
(§5) LC/MS/MS Bioanalysis of Samples from Plasma Protein Binding and Intrinsic Clearance […]
(§6) Samples were analyzed on a Thermo Electron TSQ Quantum Ultra triple quad mass spectrometer (San Jose, CA) via electrospray ionization (ESI) with two Themo Electron Accella pumps (San Jose, CA), and a Leap Technologies CTC PAL autosampler (Carrboro, NC). […]

Data set [2] can be described thus: predicted hepatic clearance, hepatic microsomes (rat). The note with it: rat (r). Type of data set: in vitro ADME. The procedure:
as §1, §2, §3, §4, §5, §6

Data set [3] can be described thus: kinetic / aqueous solubility. Type of data set: physicochemical. The note with it: for solubility kinetic: aqueous medium, kinetic from dmso stock.
The subject of the next data set is hM2-5. Put plainly: muscarinic selectivity calcium mobilization (human M2-5). Type of data set: cell-based. As to the method: Procedures for Biological Experiments
Calcium mobilization assays:
All functional cell-based assays were performed in stable Chinese Hamster Ovary (CHO) cell lines constitutively expressing human M5 or human M1 receptors. For full muscarinic selectivity, CHO cells expressing human M3, human M2 plus Gqi5 or human M4 plus Gqi5 were used. Cells were plated at 15,000 cells per 20 µL per well in black 384-well, TC-treated, clear-bottomed plates (Greiner) in Ham’s F12 medium supplemented with 10% FBS and 20 mM HEPES. Cells were incubated overnight at 37 °C under 5% CO2. […] The compound plate, cell plate, and plates containing EC20 and EC80 acetylcholine concentrations were placed in a Hamamatsu FDSS 6000 or 7000 kinetic imaging plate reader equipped to measure Ex480/Em540 fluorescence. […] After 2 seconds of collecting baseline fluorescence, 20 µL of the compound solutions were added to the cell plate. […] The fluorescence signal was collected for a total of 300 seconds. […] Data were imported and analyzed in Dotmatics Informatics software. by normalizing all data in the individual kinetic traces to the initial fluorescence read. The magnitude of each agonist addition was then determined and normalized to the average maximum response. […] The IC50 determined using the EC80 of acetylcholine is the value reported. […]

The nature of data set [4]: solubility in simulated gastric fluid (FaSSGF). The data set is classed as physicochemical. To be noted: fassgf or other biorelevant.
[5] abbreviates: pH 2.2, pH 2.2, aqueous buffer, read-out: Kinetic solubility (pH = 2.2).
Where [6] appears, read: pH 6.8, pH 6.8, aqueous buffer, read-out: Kinetic solubility (pH = 6.8).

Converted amounts (≈) assume the structure as drawn. Read-outs that look alike come from different tables or passages of the source. Where only a bound is given, the exact number is not on record here.

Broadly, the EC50 is the concentration needed to bring the measured effect to its halfway point. By kinetic solubility is commonly meant the concentration staying in solution when a stock, usually in DMSO, is diluted into the medium. As usually defined, the solubility is the concentration that dissolves in the medium under given conditions. Turning to `Cn1cc2c(-c3cc(F)c(CN4Cc5ncccc5C4=O)c(F)c3)cccc2n1` [compound 1, reference compound], the EC50 was 728 nM at mM1 and greater than 30000 nM with hM2-5. In addition, at mM1, the “mM1 PAM, percentage in brackets (AChmax)” value was 56%. Besides, the “Predicted CLhep” value in data set [1] is 5.6 mL/min/kg; in data set [2], 5.7 mL/min/kg. In addition, the kinetic solubility in data set [3] (setting [5]) stood at 80.1 µM (≈ 31.3 µg/mL); in data set [3] (setting [6]), 9.75 µM (≈ 3.81 µg/mL). Moreover, the aqueous solubility result in data set [3] (result in words) was “low aqueous solubility”. In addition, the solubility in data set [4] is 36 µg/mL (≈ 92.2 µM).
Take `Cn1cc2c(-c3cc(F)c(CN4Cc5ncccc5C4=O)c(F)c3)ccc(C(C)(C)O)c2n1` [compound 7]: the values for the EC50 at mM1 and in the data set with hM2-5 were 80 nM and greater than 30000 nM, respectively. In addition, at mM1, the “mM1 PAM, percentage in brackets (AChmax)” value is reported as 63%. In addition, the “Predicted CLhep” value is on record as 17.7 mL/min/kg in data set [1] and 35.5 mL/min/kg in data set [2]. Besides, the solubility (kinetic) turned out to be 81.5 µM (≈ 36.6 µg/mL) in data set [3] (setting [5]) and 67.8 µM (≈ 30.4 µg/mL) in data set [3] (setting [6]). In data set [4], this compound yielded a solubility of 24.8 µg/mL (≈ 55.3 µM).
